The results in this text go back to PubChem BioAssay AID2823 (Broad Institute, 2010).

Each structure is given as a SMILES string. Activity calls are given as the source filed them. How the calls were made is not given here. Bounds are passed on as bounds.

The test deals with RanGTP-importin-beta complex (human Ran / KPNB1). Put plainly: Ran–importin-beta interaction inhibitors, confirmation, biochemical, FRET, CFP/YFP, cell-free homogeneous (AID 2823). Conditions: CFP-Ran/YFP-importin-beta FRET ratio.
In the case of `O=C(CN1CCN(C/C=C/c2ccccc2)CC1)NC(=O)NC1CCCCC1`, the IC50 was > 50 µM (inactive).
With `CC/C(=N\NC(=O)c1cc(C2CC2)[nH]n1)c1ccccc1` the figure was > 50 µM (inactive); with `COc1ccc(C(=O)Cc2cnn(-c3ccccc3)c2)c(O)c1`, > 50 µM (inactive).
Take `Cc1cc(/C=C2\C(=O)NC(=O)N(c3ccc(F)cc3)C2=O)c(C)n1-c1ccc(C(=O)O)cc1`: the IC50 was > 50 µM (inactive).
Turning to `CCOC(=O)C1CCN(C(=O)COC(=O)c2ccc3[nH]c4c(c3c2)CCCC4)CC1`, the IC50 is > 50 µM (inactive).
With `O=C1CCCN2N=C(SCC(=O)N3N=C(c4ccc(Br)cc4)CC3c3ccc(F)cc3)SC2=N1` (centres undefined) the figure was > 50 µM (inactive).
Under `O=C(CCN1CCC(c2ccc(Cl)s2)=N1)c1ccc(Cl)s1` stands > 50 µM (inactive); under `Cc1ccc(OCc2nnc(SCC(=O)CC(=O)Nc3ccccc3)o2)cc1`, > 50 µM (inactive).
With `CC(C)CCNC(=O)C(c1ccco1)N(Cc1ccc(F)cc1)C(=O)c1snc(C(N)=O)c1N` (centres undefined) the figure was > 50 µM (inactive).
In the case of `Cc1ccccc1/C=N/Nc1ccnc2cc(Cl)ccc12`, the IC50 was > 50 µM (inactive).
As for `NS(=O)(=O)c1ccc(CCNC(=O)C(=O)c2c[nH]c3ccccc23)cc1`, the IC50 was > 50 µM (inactive).
With `CSc1nc(NCC(C)C)c2c3c(sc2n1)CN(C)CC3` the figure was 44.2 µM; with `Cc1cccc(N2CCN(C(=O)C3COc4ccccc4O3)CC2)c1C` (centres undefined), > 50 µM (inactive); with `CCOC(=O)c1sc(NC(=O)Nc2ccc(F)cc2)nc1C`, > 50 µM (inactive).
Turning to `Cc1oc2cc(O)ccc2c(=O)c1-c1nncn1-c1ccccc1`, the IC50 was 32.3 µM.
With `CCOC(=O)c1c(NC(=O)C2CCCCC2)sc2c1CCN(CC)C2` the figure was > 50 µM (inactive); with `CCOC(=O)c1ccccc1NC(=O)COC(=O)C(CCSC)NC(=O)COc1ccccc1` (centres undefined), > 50 µM (inactive).
Regarding `CC1=NN(C(=O)c2ccccc2)C(O)(c2ccc(Br)cc2)C1` (centres undefined), the IC50 was > 50 µM (inactive).
Take `Cc1cc(S(=O)(=O)N2CCN(c3c(C)cccc3C)CC2)ccc1F`: the IC50 was > 50 µM (inactive).
Under `Cc1c(NC2=CC(=O)CCC2)c(=O)n(-c2ccccc2)n1C` stands > 50 µM (inactive).
For the compound `Cc1ccc(Nc2cc(C)nn2-c2nc(C)cc(C)n2)cc1`, the IC50 was > 50 µM (inactive).
Under `COc1ccccc1NC(=O)CN1CCN(CC(=O)Nc2ccc(C)c(F)c2)CC1` stands > 50 µM (inactive).
With `COc1ccc(C(=O)Oc2c(CN3CCOCC3)cc(Cl)c3cccnc23)cc1`, the IC50 was > 50 µM (inactive).
With `COc1ccc(NS(=O)(=O)c2cc(NC(=O)c3cccs3)ccc2N2CCOCC2)cc1` the figure was > 50 µM (inactive); with `N#C/C(=C(/O)CSc1ccccn1)c1nc2ccccc2s1`, > 50 µM (inactive).
Regarding `CCCCNC(=O)c1c(N)n(Cc2ccc3c(c2)OCO3)c2nc3ccccc3nc12`, the IC50 is 4.95 µM.
As to `CCN(CCO)C(=S)Nc1cc(C(=O)OC)ccc1C(=O)OC`, the IC50 is > 50 µM (inactive).
With `NC(=O)N/N=C/c1ccccc1OC(=O)c1cc2ccccc2oc1=O` the figure was > 50 µM (inactive); with `Nc1c(C(=O)OC2CCCCC2)c2nc3ccccc3nc2n1CC1CCCO1` (centres undefined), 27.1 µM; with `CC(C)(C)CN1CCC(n2nccc2NC(=O)c2ccccc2Cl)CC1`, > 50 µM (inactive).
Under `CC(OC(=O)CNC(=O)c1cccc(F)c1)C(=O)NC1CCCCC1C` (centres undefined) stands > 50 µM (inactive); under `COc1ccc(CCNC(=O)c2cc3c(=O)n4ccccc4nc3n(CC3CCCO3)c2=N)cc1OC` (centres undefined), 21.3 µM.
Under `C=CCN1C(=O)/C(=C\c2ccc(OC(=O)c3ccco3)c(OC)c2)SC1=S` stands > 50 µM (inactive); under `COc1ccc(-c2cc(C(=O)O)nc3ccc4ccccc4c23)cc1OC`, > 50 µM (inactive); under `CCCCN(C)C(=O)c1cccc(OC2CCN(CC(C)(C)C)CC2)c1`, > 50 µM (inactive).
Regarding `O=[N+]([O-])c1ccc(Nc2c3ccccc3nc3ccccc23)cc1`, the IC50 was > 50 µM (inactive).
With `Cn1c(SCc2ccccc2F)nnc1-c1ccccn1` the figure was > 50 µM (inactive); with `Cc1ccc(-c2c(C(=O)N/N=C/c3ccc4c(c3)OCO4)nnn2-c2nonc2N)cc1`, > 50 µM (inactive); with `COc1ccc(-c2nc3ccc(C(=O)NCCCN4CCOCC4)cc3nc2-c2ccc(OC)cc2)cc1`, 46.4 µM.
Under `CCCc1n(CC(O)COCc2ccccc2)c2ccccc2[n+]1C` (centres undefined) stands > 50 µM (inactive); under `Oc1cccc(Nc2c3ccccc3nc3ccccc23)c1`, > 50 µM (inactive); under `CCn1c2ccccc2c2cc(NC(=O)CNC)ccc21`, > 50 µM (inactive).
Regarding `CC(C)(C)n1cnc2cc(NCc3ccc(Br)cc3)ccc21`, the IC50 is > 50 µM (inactive).
Turning to `CCS(=O)(=O)c1nc(S(=O)(=O)c2ccc(C)cc2)c(NCc2ccccn2)s1`, the IC50 is > 50 µM (inactive).

Broadly, the IC50 is the concentration at which inhibition is half-maximal.
